In general, melting point refers to the temperature of the solid-liquid transition. In turn, `Cc1cc(Br)c([N+](=O)[O-])c(Br)n1` [Example 1, 2,4-dibromo-6-methyl-3-nitropyridine] showed a melting point of 118 to 120 °C.
To `Cc1cc(Br)c(N)c(Br)n1` [Example 2, 3-amino-2,4-dibromo-6-methylpyridine] belongs 93 to 94 °C; to `Cc1cc(Br)c(NC(=O)CBr)c(Br)n1` [Example 3, N-[2,4-dibromo-6-methylpyridin-3-yl]-2-bromoacetamide], 197 to 199 °C.
Next, `Cc1cc(Cl)c(NC(=O)CBr)c(Cl)n1` [Example 5, N-[2,4-dichloro-6-methylpyridin-3-yl]-2-bromoacetamide]: 184 to 185 °C; `CSc1cc(C)nc(SC)c1NC(=O)CN1CCN(CCO)CC1` [Example 7, 2-[4-(2-hydroxyethyl)piperazin-1-yl]-N-[2,4-bis(methylthio)-6-methylpyridin-3-yl]acetamide]: 119 to 120 °C.

For the origin of these results see patent publication US7560547B2, “Hydroxyalkyl cyclic diamine compounds” (Kowa Co., Ltd., priority 2002, dated 2009).
